From paper PMC12118576, “Selective Glycopolymer Inhibitors of Galectin-3: Supportive Anti-Cancer Agents Protecting Monocytes and Preserving Interferon-Gamma Function” (International Journal of Nanomedicine, 2025)
“And” between values parts separate entries of the source, which are not always exact repeats. Equal values may be shown once. Read-outs that look alike come from different tables or passages of the source.

B1: glycosylated human IFNγ (natural protein, UniProt P01579 24-161, looked up)
chain: QDPYVKEAENLKKYFNAGHSDVADNGTLFLGILKNWKEESDRKIMQSQIVSFYFKLFKNFKDDQSIQKSVETIKEDMNVKFFNSNKKKRDDFEKLTNYSVTDLNVQRKAIHELIQVMAELSPAAKTGKRKRSQMLFRG
modifications: glycosylated
notes: interferon-gamma, human, glycosylated; also called interferon-gamma; INFγ; source: bought: Sigma-Aldrich

Key:
human Gal-3 = biological target: T1, human Gal-3 (Homo sapiens, UniProt P17931); test: Competitive ELISA-type assay: inhibition of Gal-3 binding to immobilized asialofetuin (ASF); conditions: for Selectivity for Gal-3: IC50 for Gal-1/IC50 for Gal-3
T1 construct: made in house; host or cells: E. coli Rosetta 2(DE3)pLysS
Experimental: Microtiter plates (Nunc Immuno Sorb, ThermoFisher Scientific, USA) were coated with ASF (0.1 µM in PBS, pH 7.5, 50 µL/well) and incubated overnight. The wells were washed with 3×250 µL of PBS containing 0.05% Tween (repeated after each step). The wells were then blocked by 2% w/v BSA in PBS buffer (250 µL/well) for 1 h. Serial dilutions of the ligands (glycopolymers or oligosaccharides) in EPBS (2 mM EDTA in PBS) were incubated with Gal-1 or Gal-3 (1.25 µM final concentration) for 2 h. The residual bound galectin was labeled with anti-His antibody conjugated to horseradish peroxidase (Santa Cruz; 1:1000 dilution in PBS, 1 h). TMB One substrate solution (Kem-En-Tech, Denmark; 50 µL/well) was added, and the reactions were incubated until visible blue staining appeared (3–20 min). The reaction was stopped by adding 3 M HCl (50 µL per well), resulting in a color shift to yellow, which was determined spectrophotometrically by an absorbance microplate reader (Sunrise Tecan Group Ltd, CH). The intensity of the signal at 450 nm corresponded to the amount of galectin bound to the wells. Non-linear regression (dose–response inhibition-variable slope) of the sigmoidal curves was used to calculate the values of half-maximal inhibitory constants (IC50) from at least six independent experiments using GraphPad Prism 7 (GraphPad Software, USA).
For the affinity measurement, the competitive ELISA assay with ASF as an immobilized competitor ligand was employed.[51] […] The inhibitory potency of the prepared glycopolymers was compared to the respective monovalent standards (LN1-LN2-tBoc, LN2-LN2-tBoc, LDN-LN2-tBoc) to calculate their relative potencies (rp) for inhibition of Gal-3 (Table 1). Relative potency values thus disclose the extent of the so-called multivalency effect of the glycopolymer – the ability of a ligand bound to a multivalent carrier to get easier access and orientation to the lectin-binding site.[52]

J774A.1 macrophages = test: Gal-3-induced apoptosis of J774A.1 macrophages, Annexin V flow cytometry; type: cell-based, murine; conditions: 10 µM Gal-3, 24 h, no glycopolymer
Experimental: For flow cytometry studies, cultured undifferentiated (without any LPS and cytokines) J774A.1 murine macrophages were seeded in a concentration of 10^5 cells/well of the 24-well plate. After 24 h of cultivation, cells were pretreated with the desired concentration of glycopolymers for 5 minutes and afterward treated with 10 μM Gal-3 for 24 h. After harvesting of cells, early and late apoptoses of Gal-3-treated J774A.1 cells in the presence or absence of glycopolymers were evaluated using eBioscience Annexin V apoptosis detection kit (Thermo Fisher Scientific). Flow cytometry was performed using FACS Canto II (BD Biosciences, Franklin Lakes, NJ, USA). Apoptotic half-maximal inhibitory concentrations (IC50) of individual glycopolymers were calculated by nonlinear regression of log(glycopolymer concentration) versus apoptosis response using GraphPad Prism 8 software (version 8.0.1; GraphPad Software, La Jolla, CA, USA).
Tumor-associated macrophages (TAMs) are defined as M1 or M2 subtypes, which differ in their roles in carcinogenesis.[56] Phenotypically M2 macrophages, which are usually more abundant inside tumors and seem to be mainly responsible for the spread of cancer,[57] are chemoattracted into the tumor mass by the Gal-3 gradient.[11] Therefore, we aimed to investigate the inhibitory potential of prepared glycopolymers towards Gal-3 in the context of monocytes and macrophages. […]

[1] = biological target: T2, recombinant human Gal-3 biotinylated at the lysine of the N-terminal AVI-tag (human, UniProt P17931 1-250, biotin on the lysine of the AVI-tag (…)); test: depletion from solution by coated magnetic beads, ELISA of the supernatant; biotinylated Gal-3 on Dynabeads M-280 Streptavidin; increasing amount of beads incubated with glycosylated IFNγ, 1 h, room temperature; beads separated, IFNγ left in the supernatant measured by ELISA; conditions: both partners purified
T2 construct: galectin-3, human; Gal-3-AVI construct in pET-Duet1; Held on streptavidin Dynabeads M-280 through the biotin; also called Gal-3-AVI; biotinylated Gal-3; source: E. coli BL21 (DE3) with birA biotin ligase, purified (Ni-NTA)

[2] = IC50 per glycan, Gal-3 1.25 µM, binding to immobilized ASF, read-out: IC50 [µM]/Glycan

T1 sequence (P17931 whole entry): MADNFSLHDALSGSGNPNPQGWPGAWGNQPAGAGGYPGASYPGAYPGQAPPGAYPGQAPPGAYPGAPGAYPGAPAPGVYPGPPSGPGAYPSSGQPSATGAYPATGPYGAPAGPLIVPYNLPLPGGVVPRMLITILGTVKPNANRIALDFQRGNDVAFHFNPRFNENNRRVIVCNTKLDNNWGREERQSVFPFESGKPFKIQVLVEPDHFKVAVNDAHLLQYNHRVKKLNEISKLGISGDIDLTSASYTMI
T2 sequence (P17931 whole entry): as above

Molecule | Selectivity for Gal-3 (human Gal-3) | IC50 (human Gal-3; [2]) [µM] | IC50 (human Gal-3; concentration required to inhibit Gal-3 binding to immobilized ASF by 50%, read-out: IC50) [µM] | apoptosis of J774A.1 cells induced by Gal-3 (J774A.1 macrophages) | binding result [1]
CC(=O)N[C@@H]1[C@@H](O)[C@H](O[C@@H]2O[C@H](CO)[C@H](O)[C@H](O[C@@H]3O[C@H](CO)[C@@H](O)[C@H](O[C@@H]4O[C@H](CO)[C@H](O)[C@H](O)[C@H]4O)[C@H]3NC(C)=O)[C@H]2O)[C@@H](CO)O[C@H]1NC(=S)NCCNC(=O)OC(C)(C)C [Glycopolymer 4, (tert-Butoxycarbonylamino)ethylthioureidyl β-D-Galactopyranosyl-(1→3)-2-Acetamido-2-Deoxy-β-D-Glucopyranosyl-(1→3)-β-D-Galactopyranosyl-(1→4)-2-Acetamido-2-Deoxy-β-D-Glucopyranoside] | 17 | 27.1 ± 4.4 | 27.1 ± 4.4 | – | –
CC(=O)N[C@@H]1[C@@H](O)[C@H](O[C@@H]2O[C@H](CO)[C@H](O)[C@H](O[C@@H]3O[C@H](CO)[C@@H](O[C@@H]4O[C@H](CO)[C@H](O)[C@H](O)[C@H]4O)[C@H](O)[C@H]3NC(C)=O)[C@H]2O)[C@@H](CO)O[C@H]1NC(=S)NCCNC(=O)OC(C)(C)C [Glycopolymer 5, (tert-Butoxycarbonylamino)ethylthioureidyl β-D-Galactopyranosyl-(1→4)-2-Acetamido-2-Deoxy-β-D-Glucopyranosyl-(1→3)-β-D-Galactopyranosyl-(1→4)-2-Acetamido-2-Deoxy-β-D-Glucopyranoside] | 10 | 10.2 ± 3.2 | – | – | –
CC(=O)N[C@@H]1[C@@H](O)[C@H](O[C@@H]2O[C@H](CO)[C@H](O)[C@H](O[C@@H]3O[C@H](CO)[C@@H](O[C@@H]4O[C@H](CO)[C@H](O)[C@H](O)[C@H]4NC(C)=O)[C@H](O)[C@H]3NC(C)=O)[C@H]2O)[C@@H](CO)O[C@H]1NC(=S)NCCNC(=O)OC(C)(C)C [Glycopolymer 6, (tert-Butoxycarbonylamino)ethylthioureidyl 2-Acetamido-2-Deoxy-β-D-Galactopyranosyl-(1→4)-2-Acetamido-2-Deoxy-β-D-Glucopyranosyl-(1→3)-β-D-Galactopyranosyl-(1→4)-2-Acetamido-2-Deoxy-β-D-Glucopyranoside] | 13 | 7.4 ± 0.5 | – | – | –
Gal-3: Recombinant human galectin-3, N-terminal His-tagged protein construct produced in E. coli; used to induce apoptosis | – | – | – | 20.7 ± 0.8% and 15–25% | –
B1 | – | – | – | – | binds
